In ChEMBL document CHEMBL4266055, “Optimization of Phenyl Indole Inhibitors of the AAA+ ATPase p97” (ACS Med Chem Lett, 2018):
pEC50, pIC50: −log10 of the molar value. Values after ≈ are worked out from the molar mass of the structure shown.

How the values were obtained:
[1] = target: T1, Transitional endoplasmic reticulum ATPase (Homo sapiens, UniProt P55072)
Description: Inhibition of recombinant full length human p97 (1 to 806 residues) expressed in Escherichia coli Rosetta 2 (DE3) using 100 uM ATP as substrate after 90 mins by luminescence assay

[2] = Half life in human liver microsomes at 10 uM in presence of NADPH/G6PD by LC-MS/MS analysis; type: ADME, microsome
[3] = target: T1, Transitional endoplasmic reticulum ATPase; experiment: Inhibition of human p97 in human HeLa cells harboring UbG76V-GFP assessed as accumulation of UbG76V after 1 hr by microscopic analysis; type: cell-based
[4] = Aqueous solubility of the compound in pH 7.4 buffer by UV/Vis spectroscopic analysis; type: physicochemical
[5] = Half life in mouse liver microsomes at 10 uM in presence of NADPH/G6PD by LC-MS/MS analysis; type: ADME, microsome
[6] = target: T1, Transitional endoplasmic reticulum ATPase; experiment: Inhibition of human p97 in human HeLa cells harboring UbG76V-GFP assessed as accumulation of UbG76V after 6 hrs by microscopic analysis; type: cell-based
[7] = test system: Panel NCI-60 (60 carcinoma cell lines); experiment: Growth inhibition of human NCI60 cells after 48 hrs by sulforhodamine B assay; type: functional
[8] = target: T1, Transitional endoplasmic reticulum ATPase; experiment: Inhibition of recombinant full length human p97 (1 to 806 residues) expressed in Escherichia coli Rosetta 2 (DE3) using 20 uM ATP as substrate after 90 mins by luminescence assay

T1 sequence (P55072 whole entry): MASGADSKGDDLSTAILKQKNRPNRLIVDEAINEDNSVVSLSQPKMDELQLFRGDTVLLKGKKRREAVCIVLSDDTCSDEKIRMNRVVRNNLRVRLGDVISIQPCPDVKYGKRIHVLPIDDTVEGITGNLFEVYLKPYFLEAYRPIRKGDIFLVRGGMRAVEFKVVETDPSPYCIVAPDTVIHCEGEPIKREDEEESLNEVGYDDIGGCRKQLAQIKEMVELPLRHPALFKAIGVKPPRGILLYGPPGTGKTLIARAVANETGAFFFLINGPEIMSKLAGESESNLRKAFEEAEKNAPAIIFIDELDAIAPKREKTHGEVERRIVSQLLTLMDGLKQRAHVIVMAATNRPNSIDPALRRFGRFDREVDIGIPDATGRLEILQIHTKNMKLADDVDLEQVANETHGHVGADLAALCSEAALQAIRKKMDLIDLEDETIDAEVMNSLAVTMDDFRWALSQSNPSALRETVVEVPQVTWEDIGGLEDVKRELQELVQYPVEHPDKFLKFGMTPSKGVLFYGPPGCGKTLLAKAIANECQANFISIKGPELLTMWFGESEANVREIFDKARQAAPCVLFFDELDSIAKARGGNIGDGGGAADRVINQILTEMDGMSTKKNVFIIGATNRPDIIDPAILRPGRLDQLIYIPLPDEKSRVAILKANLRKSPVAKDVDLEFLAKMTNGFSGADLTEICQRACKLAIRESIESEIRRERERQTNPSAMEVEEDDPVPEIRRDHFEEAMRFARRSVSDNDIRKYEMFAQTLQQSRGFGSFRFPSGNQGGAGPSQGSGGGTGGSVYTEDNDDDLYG

Structure (SMILES) | pIC50 [1] | also measured
CC(C)N1CCN(CCCNC2CCN(c3cccc(-c4cc5ccccc5[nH]4)c3)CC2)CC1 | 6.42 | –
CN(C)CCNC1CCN(c2cccc(-c3cc4cc(F)ccc4[nH]3)c2)CC1 | 6.10 | –
CC(C)N1CCN(C(=O)CCNC2CCN(c3cccc(-c4cc5cc(F)ccc5[nH]4)c3)CC2)CC1 | 6.72 | –
CC(C)N1CCN(C2(CNC3CCN(c4cccc(-c5cc6cc(F)ccc6[nH]5)c4)CC3)COC2)CC1 | 7.05 | –
CN1CCN(C2(CNC3CCN(c4cccc(-c5cc6cc(F)ccc6[nH]5)c4)CC3)CCC2)CC1 | 7.70 | t1/2 [2]: 7.92 h; pEC50 [3]: 4.82; solubility [4]: 330 µM (≈ 157 µg/mL); t1/2 [5]: 4.62 h; pEC50 [6]: < 4.40; GI50 [7]: 2000 nM
CC(C)N1CCN(C2CCN(c3cccc(-c4cc5cc(F)ccc5[nH]4)c3)CC2)CC1 | 5.32 | –
c1ccc(CCNC2CCN(c3cccc(-c4cc5ccccc5[nH]4)c3)CC2)cc1 | 5.58 | –
c1ccc(CCNC2CCN(c3cccc(-c4cc5ccccc5[nH]4)c3)CC2)nc1 | 5.98 | –
c1ccc(CNC2CCN(c3cccc(-c4cc5ccccc5[nH]4)c3)CC2)nc1 | 5.97 | –
CCN1CCN(CCNC2CCN(c3cccc(-c4cc5ccccc5[nH]4)c3)CC2)CC1 | 6.70 | –
CC(C)(C)N1CCN(CCNC2CCN(c3cccc(-c4cc5ccccc5[nH]4)c3)CC2)CC1 | 6.68 | –
c1cc(-c2cc3ccccc3[nH]2)cc(N2CCC(NCCN3CCNCC3)CC2)c1 | 6.48 | –
CN1CCN(CCNC2CCN(c3cccc(-c4cc5ccccc5[nH]4)c3)CC2)CC1 | 6.55 | –
CC(C)N1CCN(CCNC2CCN(c3cccc(-c4cc5cc(F)ccc5[nH]4)c3)CC2)CC1 | 7.15 | –
Cc1cc(OCc2nnc(SC3CCCC3)n2-c2cccnc2)ccc1-c1ccc(S(C)(=O)=O)cc1 | – | t1/2 [2]: < 0.167 h; solubility [4]: 86 µM (≈ 44.8 µg/mL); t1/2 [5]: < 0.167 h
Cn1ncnc1CCNC1CCN(c2cccc(-c3cc4ccccc4[nH]3)c2)CC1 | 6.00 | pIC50 [8]: 5.62
CC(C)N1CCN(C2(CNC3CCN(c4cccc(-c5cc6cc(F)ccc6[nH]5)c4)CC3)CCC2)CC1 | 7.00 | –
CC(C)N1CCC(NC2CCN(c3cccc(-c4cc5cc(F)ccc5[nH]4)c3)CC2)CC1 | 7.30 | t1/2 [2]: 9.48 h; pEC50 [3]: 4.72; solubility [4]: 380 µM (≈ 165 µg/mL); t1/2 [5]: 6.43 h; pEC50 [6]: < 4.40; GI50 [7]: 1580 nM
